Results on 3 compounds are retold here after patent US20260159474A1, “Aminoindane Compounds and Compositions and Methods of Their Therapeutic Use” (Solvonis Therapeutics Ireland Holdings Limited, priority 2021, published 2026).

Structures are written as SMILES. Where two headings read alike, the source gives them in different places.

Series [1] in a line: In vivo pharmacokinetics and brain penetration in rats after IV administration. As to conditions: rat; for Kp at 2 h: 2 hours post-administration, read-out: brain to plasma ratio; for Vd: read-out: Vss. Here is the method:
Group 1: Therapeutic compounds were administered via the IV route to three rats at a target dose level of 0.5 mg/kg. Blood and brain samples were collected at 2 h after IV administration. Group 2: Therapeutic compounds were administered via the IV route to three rats (brain penetration group) at a target dose level of 0.5 mg/kg. Blood and brain samples were collected at 2 h after IV administration. Group 3: Therapeutic compounds were orally administered to three rats at a target dose level of 1 mg/kg.
All test formulations were prepared on the day of administration prior to dosing, stored at room temperature, and used as soon as possible. Formulations were prepared and administered by volume IV dosing. Actual body weights were determined on the day of dose administration, and the dose volumes were adjusted to the weight of the animal at the time of dose administration.
Blood was collected into K3 EDTA tubes at each of the following time points post-administration:
Group 1 (IV): 0.083, 0.33, 1, 2, 4, 6, 8, and 24 hours after dosing Group 2 (IV): 2 hours after dosing for terminal brain analysis
All blood samples were thoroughly and gently mixed following collection and placed on wet ice. Within 0.5 h of collection, blood was centrifuged (3000 g for 10 minutes at approximately 4° C.). Within 0.5 hours, 20 μL of each plasma sample was transferred into micronic tubes containing 80 μL of 0.1N Hepes buffer (pH 7.0-7.5). Residual plasma was transferred in micronic tubes as a second aliquot.
Brain specimens were diluted with 4 volumes of 0.1 N Hepes buffer and homogenized using the Precellys system. Blood and brain samples were assayed using an optimized method based on protein precipitation with acetonitrile followed by HPLC/MS-MS analysis. Given the unknown stability of the analytes in blood and brain, calibration standards (CS) and quality control samples (QC) were prepared in blood and brain samples on the day of dosing and stored together with study samples. It is assumed that this procedure accounted for any possible analyte degradation.
Study samples, CS, QC, and blanks were spiked with an internal standard (IS), to improve the precision of the assay. Study samples were analyzed together with CS, QC and blank samples (including double blanks). From the calibration curve, the linear range of the analytical method was determined and the lower/upper limits of quantitation were specified.
The results of blood and brain specimens were subjected to non-compartmental pharmacokinetic analysis using Phoenix WinNonlin 6.3, with the following parameters reported: Calculated concentration of test items in the corresponding formulation (expressed as mg/mL), dose levels (expressed as mg/kg) for each compound, actual collection times (expressed as hh: mM), blood concentrations (expressed as ng/ml) for each compound, brain concentrations (expressed as ng/g) for each compound, PK parameters (iv: Cmax, AUC, CLp, Vss, t1/2, if applicable; oral (PO): Cmax, tmax, AUC, F %, Fa %, Eh, AUC BB ratio, if applicable) for each compound, and abnormal clinical signs and relevant findings, if any.

Series [2] relates to extracellular dopamine (DA) in the nucleus accumbens (NAcc). Kind of series: In vivo microdialysis in rat nucleus accumbens, dopamine. More on the design: species or system Sprague Dawley rats. As to conditions: 7 mg/kg I.P. Here is the method:
Methods and Procedure: This study was conducted in compliance with previously described procedures to assure data integrity, adherence to GLP regulations, and standard preclinical study and surgery procedures. The in vivo microdialysis technique was applied to measure the over-time variations of DA, 5-HT, and NE extracellular (EC) concentrations in conscious, freely-moving Sprague Dawley rats. Levels of the neurotransmitters in microdialysis samples were determined using LC-MS/MS analysis. The experiment was also conducted with MDMA for comparative purposes.
As it relates to cannula implantation, the rats were anesthetized with isoflurane 4% in oxygen (2-2.5 L/min), then the isoflurane concentration 2-2.5% was maintained via a nose cone adapted to the stereotaxic apparatus. The rats were treated with meloxicam (0.2 mg/kg, subcutaneously, sc; Meloxidolor) and amoxicilline (150 mg/kg, sc, Betamox LA). The skull was then shaved and disinfected. Rats were then placed in a stereotaxic apparatus for small animals. One vertical guide cannula was inserted through a 1 mm hole drilled on the exposed skull. Coordinates, with respect to the bregma to target specific brain areas, followed indications from stereotaxic atlas of the rat brain. Specifically a guide cannula (MAB 4.12.IC, Agn Tho's AB, Lidinga, Sweden) was inserted in the NAcc (anteroposterior+1.6; lateral −1.6; dorsoventral −6.0). The guide cannula was then secured with dental cement and 2-4 screws. At the end of the surgery the animal was isolated in a single cage during recovery, for a period of at least one week, during which animal health conditions were checked twice daily and the weight recorded twice a week. Animals continued to be housed singly throughout the experiment. One day before the experiment the cannula stylet was removed and a microdialysis probe with a dialyzing length of 2 mm (MAB 4.12.2 Cu, Agn Tho's AB, Lidingo, Sweden) was inserted. Probes can be re-used 2 times for 2 experimental sessions after appropriate cleaning with fresh milliQ water.
Post-surgery, the rats were maintained in a heating chamber prior to waking up in order to avoid hypothermia that could be caused by anaesthesia. 5 mL of physiologic solution was subcutaneously administered immediately after surgery, and once/day for 2-3 days, if signs of dehydration are noticed. Meloxicam (Meloxidolor) 0.2 mg/kg was again administered subcutaneously the day after surgery as well as after 48 h after surgery together with Amoxicilline Long Acting (Betamox LA) 150 mg/kg. Health status and body weight was checked every day during the first week.
The animals were treated with the therapeutic compounds, and MDMA, or their vehicle (saline) according to a Latin square design over 5 separate experimental days (one day/week). The treatments were administered in a volume of 1 mL/kg intraperitoneally.
On the day of the experiment, each animal was taken into the laboratory in its home cage. Inlet tubing of the probe was attached to a dual quartz-lined two channel liquid swivel mounted on a low mass spring counterbalance arm which, in turn, was connected to a gas-tight syringe on a microinfusion pump. […] An equilibration period of about two hours of perfusion was allowed before collecting samples. Following the equilibration period, 4 basal samples were collected for each experimental animal followed by further 10 post-treatment samples. Samples were collected every 20 minutes (up to 3 hours and 20 minutes post-treatment) by means of a refrigerated auto-sampler (Univentor 820 Microsampler, AgnTho's, Sweden) maintained at +8 “C. At the end of all experimental sessions, 2 μL of 0.1% methylene blue solution was injected through the microdialysis probe, animals were euthanized, and their brains removed to confirm the correct probe-position.
As mentioned, the concentration of DA, 5-HT and NE in CSF samples were determined using an optimized method based on LC-MS/MS analysis. […]

[3] abbreviates: brain and plasma, 0.5 mg/kg, IV.
[4] abbreviates: plasma, IV, 0.5 mg/kg, read-out: Clearance.
Setting [5] is: plasma, IV, 0.5 mg/kg, read-out: Cmax.

Usually AUC(0-inf) stands for the area under the concentration-time curve extrapolated to infinity. High values mean high exposure, low ones low exposure. A word on the AUC(0-t): it is exposure summed from dosing to a finite time, without extrapolation to infinity. The low end stands for less exposure, the high end for more exposure. In general, half-life refers to the time needed for the level to fall by half in the phase considered. By clearance is commonly meant the volume of plasma or blood freed of the substance per unit of time. Usually Cmax stands for the highest concentration seen after dosing. `COC(=O)c1ccc2c(c1)CC(N)C2` (stereo not drawn) [CMP-405, 2-aminoindane-5-methylcarboxylate]: in series [1] (setting [3]), the Kp at 2 h came to 2.12. The AUC(0-inf) in series [1] (plasma, IV, 0.5 mg/kg) came out at 334 ng·h/mL. In series [1] (plasma, IV, 0.5 mg/kg), the AUC(0-t) amounted to 330 ng·h/mL. This compound also showed a half-life in series [1] (plasma, IV, 0.5 mg/kg) of 19.8 min. Also, the clearance in series [1] (setting [4]) is 25.5 mL/min/kg. Moreover, in series [1] (setting [5]), the highest concentration (Cmax) was determined as 808 ng/mL. In addition, in series [1] (plasma, IV, 0.5 mg/kg), the Vd amounted to 0.602 L/kg. In series [1] (IV, 0.5 mg/kg), the “Clast” value stood at 8.08 ng/mL. Also, the “Tlast” value in series [1] (IV, 0.5 mg/kg) amounted to 2 h. In addition, the “Dopamine (DA) level (% from baseline)” value in series [2] (0 min (basal sample)) amounted to 99%; in series [2] (20 min post-admin), 134%; in series [2] (40 min post-admin), 122%; in series [2] (60 min post-admin), 139%; in series [2] (80 min post-admin), 117%; in series [2] (100 min post-admin), 123%. Moreover, the “Dopamine (DA) level (% from baseline)” value in series [2] (120 min post-admin) was 113%; in series [2] (140 min post-admin), 99%; in series [2] (160 min post-admin), 98%; in series [2] (180 min post-admin) it was 96%; in series [2] (200 min post-admin), 107%; in series [2] (−20 min (basal sample)), 101%.
What is called Vss is a proportionality between amount in the body and measured concentration, not a real space. The low end stands for confinement near the circulation, the high end for extensive tissue distribution. Consider `CNC(C)Cc1ccc2c(c1)OCO2` (stereo not drawn) [MDMA], for which the “AUCinf” value in series [1] (IV, 1 mg/kg) turned out to be 384 ng·h/mL. The “AUClast” value in series [1] (IV, 1 mg/kg) was determined as 367 ng·h/mL. In addition, the “Clast” value in series [1] (IV, 1 mg/kg) is reported as 12.1 ng/mL. Besides, the “Cmax” value in series [1] (IV, 1 mg/kg) is listed as 625 ng/mL. For the same compound, in series [1] (IV, 1 mg/kg), the “T1/2” value stood at 57.2 min. Moreover, the “Tlast” value in series [1] (IV, 1 mg/kg) amounted to 4 h. Also, the distribution volume (Vss) in series [1] (IV, 1 mg/kg) is on record as 3.02 L/kg. In addition, the “clearance” value in series [1] (IV, 1 mg/kg) stood at 45.6 mL/min/kg. The “Dopamine (DA) level (% from baseline)” value in series [2] (0 min (basal sample)) was determined as 93%; in series [2] (20 min post-admin) it was 113%; in series [2] (40 min post-admin), 381%; in series [2] (60 min post-admin) it was 520%; in series [2] (80 min post-admin) it was 448%; in series [2] (100 min post-admin), 399%. The “Dopamine (DA) level (% from baseline)” value stood at 396% in series [2] (120 min post-admin); 357% in series [2] (140 min post-admin); 324% in series [2] (160 min post-admin); 293% in series [2] (180 min post-admin); 278% in series [2] (200 min post-admin); 107% in series [2] (−20 min (basal sample)).
Consider `COc1ccc2c(c1)CC(N)C2` (stereo not drawn) [MEAI, 5-methoxy-2-aminoindane], for which the Kp at 2 h in series [1] (setting [3]) was determined as 2.21. Further, the Kp uu at 2 h in series [1] (brain and plasma, intravenous, 0.5 mg/kg, assuming free plasma concentration equals total plasma concentration) was 0.71. For the same compound, the total exposure AUC(0-inf) in series [1] (plasma, IV, 0.5 mg/kg) came to 788 ng·h/mL. In addition, in series [1] (plasma, IV, 0.5 mg/kg), the area under the curve AUC(0-t) was found to be 773 ng·h/mL. In series [1] (plasma, IV, 0.5 mg/kg), the half-life is 29.6 min. Also, in series [1] (setting [4]), the clearance was 10.6 mL/min/kg. Also, in series [1] (setting [5]), the peak concentration (Cmax) stood at 1400 ng/mL. Further, the Vd in series [1] (plasma, IV, 0.5 mg/kg) worked out at 0.376 L/kg. The “Clast” value in series [1] (IV, 0.5 mg/kg) was 24.7 ng/mL. The “Tlast” value in series [1] (IV, 0.5 mg/kg) stood at 3 h. The “Dopamine (DA) level (% from baseline)” value in series [2] (0 min (basal sample)) came out at 96%; in series [2] (20 min post-admin), 95%; in series [2] (40 min post-admin), 197%; in series [2] (60 min post-admin) it was 187%; in series [2] (80 min post-admin), 154%; in series [2] (100 min post-admin), 141%. In addition, the “Dopamine (DA) level (% from baseline)” value in series [2] (120 min post-admin) is given as 130%; in series [2] (140 min post-admin), 131%; in series [2] (160 min post-admin), 137%; in series [2] (180 min post-admin), 144%; in series [2] (200 min post-admin), 127%; in series [2] (−20 min (basal sample)) it was 104%.
